{"source": "patent US20130324543A1", "about": "“REVERSAL OF HIGH BREAST CANCER RISK IN MAMMALS EXPOSED TO ESTROGENIC CHEMICALS IN UTERO BY ADULT EXPOSURE TO HDAC AND DNMT INHIBITORS” (Georgetown University, priority 2012, published 2013)", "key": {"mammary tumors": {"test_system": "mammary tumors", "experiment": "DMBA-induced mammary tumorigenesis in F1-F3 offspring of rat dams fed HF or EE2 diet", "type": "in vivo, Sprague-Dawley rats", "procedure": "Pregnant Sprague-Dawley rats (F0) were fed AI[…] control diet or an isocaloric AI[…] based HF diet, containing 43% energy from corn oil, throughout gestation. Another group of pregnant rats was fed AI[…] diet supplemented with 0.1 ppm ethinyl estradiol (EE2) from day 14 to day 20 of pregnancy. F1 females were mated with F1 males from the same group to produce the F2 generation. The F3 generation was produced in the same manner (FIG. 23). No sibling mating was carried out. […] AI[…] control diet (control, 17% energy from corn oil), isocaloric high fat diet (HF, 43% energy from corn oil) or ethinyl estradiol-supplemented AI[…] diet (EE2, 0.1 ppm). The HF diet was fed for dams through the duration of pregnancy (P) (21 days), while dams were fed EE2 supplemented diet between days P14-20. Once pups (F1) were born, all dams received the control diet. F1 and F2 females (n=8-10) were mated on PND 60 with males from the same group to produce the F2 and F3 generations. All F1 and F2 pregnant dams were fed control diet for the extent of pregnancy. Outcross experiments were also performed: F1 females or males exposed to EE2 or HF diet in utero were crossed with control males or females. […] Tumorigenesis (incidence and multiplicity) was monitored for 20 weeks. […] Louis, Mo.) in 1 ml of peanut oil. […] Tumor growth was measured using a caliper and the length, width, and height of each tumor were recorded. […] Differences in tumor latency and multiplicity were tested by t-test (or Mann-Whitney Rank Sum test) or one-way ANOVA (where appropriate, between groups comparisons after ANOVA were done using Dunn's multi-comparison procedure). Kaplan-Meier survival curves were used to compare differences in tumor incidence, followed by the log-rank test Tumor histopathology was analyzed."}, "[1]": {"experiment": "Body weight and growth of in utero exposed pups", "type": "in vivo, C57BL/6 mice", "conditions": "mouse, in vivo", "from_the_text": "Additions to the basic diet were as follows: 1) cornstarch [control]; 2) EE2 0.1 ppm; 3) BPA 0.155 ppm; 4) GEN 500 ppm."}, "[2]": {"conditions": "F1 generation (daughters) vs controls"}, "[3]": {"conditions": "F2 generation (granddaughters) vs controls"}, "[4]": {"conditions": "F3 generation (great-granddaughters) vs controls"}}}
{"smiles": "C#C[C@]1(O)CC[C@H]2[C@@H]3CCc4cc(O)ccc4[C@H]3CC[C@@]21C", "note": "[EE2, ethinyl estradiol]", "values": [{"measurement": "Mammary tumor incidence", "setting": "mammary tumors; [2]", "result": "higher"}, {"measurement": "mammary tumor multiplicity", "setting": "mammary tumors; [2]", "result": "higher"}, {"measurement": "Mammary tumor incidence", "setting": "mammary tumors; [3]", "result": "neither tumor incidence (p=0.68) nor multiplicity (p=0.49) was statistically different"}, {"measurement": "mammary tumor multiplicity", "setting": "mammary tumors; [3]", "result": "neither tumor incidence (p=0.68) nor multiplicity (p=0.49) was statistically different"}, {"measurement": "tumor multiplicity", "setting": "mammary tumors; F2 outcross EE2♀×C♂ vs controls", "result": "significantly higher"}, {"measurement": "Mammary tumor incidence", "setting": "mammary tumors; F2 outcross, control ♀ x exposed ♂", "result": 33, "unit": "%"}, {"measurement": "Mammary tumor incidence", "setting": "mammary tumors; F2 outcross, exposed ♀ x control ♂", "result": 62, "unit": "%"}, {"measurement": "Mammary tumor incidence", "setting": "mammary tumors; [4]", "result": "also higher, but not statistically significant"}, {"measurement": "mammary tumor multiplicity", "setting": "mammary tumors; [4]", "result": "significantly higher"}, {"measurement": "birthweight, or postnatal weight development", "setting": "[1]", "result": "did not alter"}]}
